Measurements: ChEMBL document CHEMBL1132089, “Probing the role of interfacial residues in a dimerization inhibitor of HIV-1 protease” (Bioorg Med Chem Lett, 1999)
Where a SMILES comes first, the peptide text is derived from it. Bridges are numbered along the chain shown (N, C = ends). Roman numbers before positions name the chains, in order. The star is where a group is joined. C16 diacid = O=C(O)CCCCCCCCCCCCCCC(=O)*

biological target: Human immunodeficiency virus type 1 protease (Human immunodeficiency virus 1) (UniProt Q72874); experiment: Percent inhibition of HIV-1 protease at a concentration level of 25 nM relative to compound I was determined by UV absorbance

SMILES	inhibition
CC[C@H](C)[C@H](NC(=O)[C@H](C)NC(=O)[C@@H]1CCCN1C(=O)CCCCCCCCCCCCCCC(=O)N[C@@H](CO)C(=O)N[C@H](C(=O)N[C@@H](CC(C)C)C(=O)N[C@@H](CC(N)=O)C(=O)N[C@@H](Cc1ccccc1)C(=O)O)[C@@H](C)O)C(=O)N[C@H](C(=O)N[C@@H](CC(C)C)C(=O)N[C@@H](Cc1c[nH]c2ccccc12)C(=O)O)[C@@H](C)O (I: PAITLW-OH / II: STLNF-OH; linker I:N-II:N via C16 diacid)	0.8%
CC(C)C[C@H](NC(=O)[C@@H](NC(=O)[C@H](CO)NC(=O)CCCCCCCCCCCCCCC(=O)N1CCC[C@H]1C(=O)N[C@@H](CCC(N)=O)C(=O)N[C@@H](C)C(=O)N[C@H](C(=O)N[C@@H](CC(C)C)C(=O)N[C@@H](Cc1c[nH]c2ccccc12)C(=O)O)[C@@H](C)O)[C@H](C)O)C(=O)N[C@@H](CC(N)=O)C(=O)N[C@@H](Cc1ccccc1)C(=O)O	2.7%
CC[C@H](C)[C@H](NC(=O)[C@H](CCC(N)=O)NC(=O)[C@@H]1CCCN1C(=O)CCCCCCCCCCCCCCC(=O)N[C@@H](CO)C(=O)N[C@H](C(=O)N[C@@H](CC(C)C)C(=O)N[C@@H](CC(N)=O)C(=O)N[C@@H](C)C(=O)O)[C@H](C)O)C(=O)N[C@H](C(=O)N[C@@H](CC(C)C)C(=O)N[C@@H](Cc1c[nH]c2ccccc12)C(=O)O)[C@@H](C)O	3.5%
CC[C@H](C)[C@H](NC(=O)[C@H](CCC(N)=O)NC(=O)[C@@H]1CCCN1C(=O)CCCCCCCCCCCCCCC(=O)N[C@@H](CO)C(=O)N[C@H](C(=O)N[C@@H](CC(C)C)C(=O)N[C@@H](CC(N)=O)C(=O)N[C@@H](Cc1ccccc1)C(=O)O)[C@@H](C)O)C(=O)N[C@@H](C)C(=O)N[C@@H](CC(C)C)C(=O)N[C@@H](Cc1c[nH]c2ccccc12)C(=O)O (I: PQIALW-OH / II: STLNF-OH; linker I:N-II:N via C16 diacid)	3.3%
CC[C@H](C)[C@H](NC(=O)[C@H](CCC(N)=O)NC(=O)[C@@H]1CCCN1C(=O)CCCCCCCCCCCCCCC(=O)N[C@@H](CO)C(=O)N[C@H](C(=O)N[C@@H](CC(C)C)C(=O)N[C@@H](C)C(=O)N[C@@H](Cc1ccccc1)C(=O)O)[C@H](C)O)C(=O)N[C@H](C(=O)N[C@@H](CC(C)C)C(=O)N[C@@H](Cc1c[nH]c2ccccc12)C(=O)O)[C@@H](C)O	1.9%
CC[C@H](C)[C@H](NC(=O)[C@H](CCC(N)=O)NC(=O)[C@@H]1CCCN1C(=O)CCCCCCCCCCCCCCC(=O)N[C@@H](CO)C(=O)N[C@H](C(=O)N[C@@H](CC(C)C)C(=O)N[C@@H](CC(N)=O)C(=O)N[C@@H](Cc1ccccc1)C(=O)O)[C@@H](C)O)C(=O)N[C@H](C(=O)N[C@@H](CC(C)C)C(=O)N[C@@H](C)C(=O)O)[C@@H](C)O (I: PQITLA-OH / II: STLNF-OH; linker I:N-II:N via C16 diacid)	26%
CC[C@H](C)[C@H](NC(=O)[C@H](CCC(N)=O)NC(=O)[C@@H]1CCCN1C(=O)CCCCCCCCCCCCCCC(=O)N[C@@H](CO)C(=O)N[C@H](C(=O)N[C@@H](CC(C)C)C(=O)N[C@@H](CC(N)=O)C(=O)N[C@@H](Cc1ccccc1)C(=O)O)[C@H](C)O)C(=O)N[C@H](C(=O)N[C@@H](C)C(=O)N[C@@H](Cc1c[nH]c2ccccc12)C(=O)O)[C@@H](C)O	1.6%
CC[C@H](C)[C@H](NC(=O)[C@H](CCC(N)=O)NC(=O)[C@@H]1CCCN1C(=O)CCCCCCCCCCCCCCC(=O)N[C@@H](C)C(=O)N[C@H](C(=O)N[C@@H](CC(C)C)C(=O)N[C@@H](CC(N)=O)C(=O)N[C@@H](Cc1ccccc1)C(=O)O)[C@H](C)O)C(=O)N[C@H](C(=O)N[C@@H](CC(C)C)C(=O)N[C@@H](Cc1c[nH]c2ccccc12)C(=O)O)[C@@H](C)O	1.1%
CC[C@H](C)[C@H](NC(=O)[C@H](CCC(N)=O)NC(=O)[C@@H]1CCCN1C(=O)CCCCCCCCCCCCCCC(=O)N[C@@H](CO)C(=O)N[C@@H](C)C(=O)N[C@@H](CC(C)C)C(=O)N[C@@H](CC(N)=O)C(=O)N[C@@H](Cc1ccccc1)C(=O)O)C(=O)N[C@H](C(=O)N[C@@H](CC(C)C)C(=O)N[C@@H](Cc1c[nH]c2ccccc12)C(=O)O)[C@@H](C)O (I: PQITLW-OH / II: SALNF-OH; linker I:N-II:N via C16 diacid)	3.3%
CC[C@H](C)[C@H](NC(=O)[C@H](CCC(N)=O)NC(=O)[C@@H]1CCCN1C(=O)CCCCCCCCCCCCCCC(=O)N[C@@H](CO)C(=O)N[C@H](C(=O)N[C@@H](C)C(=O)N[C@@H](CC(N)=O)C(=O)N[C@@H](Cc1ccccc1)C(=O)O)[C@H](C)O)C(=O)N[C@H](C(=O)N[C@@H](CC(C)C)C(=O)N[C@@H](Cc1c[nH]c2ccccc12)C(=O)O)[C@@H](C)O	4.5%
